Results as given in PubChem BioAssay (NCI).
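Following 48 hours of exposure in 96-well plates, responses at five concentrations were used to interpolate endpoints linearly. TGI denotes the concentration required for complete inhibition of growth.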

What was measured:
Assay in all cases: inhibition of tumour cell growth, NCI panel, 48 h
[1] = test system: M14 melanoma
[2] = test system: HOP-62 NSCLC
[3] = test system: SN12C renal
[4] = test system: HCT-116 colon
[5] = test system: CAKI-1 renal
[6] = test system: HT29 colon
[7] = test system: XF 498 CNS
[8] = test system: EKVX NSCLC
[9] = test system: SF-539 CNS
[10] = test system: DLD-1 colon
[11] = test system: DMS 273 small cell lung
[12] = test system: RPMI-8226 leukemia
[13] = test system: SNB-75 CNS
[14] = test system: COLO 205 colon
[15] = test system: U251 CNS
[16] = test system: HL-60(TB) leukemia
[17] = test system: IGROV1 ovarian
[18] = test system: HCC-2998 colon
[19] = test system: SNB-19 CNS
[20] = test system: OVCAR-8 ovarian
[21] = test system: SK-MEL-5 melanoma
[22] = test system: M19-MEL melanoma
[23] = test system: OVCAR-4 ovarian
[24] = test system: NCI-H460 lung
[25] = test system: SK-OV-3 ovarian
[26] = test system: HCT-15 colon
[27] = test system: OVCAR-3 ovarian
[28] = test system: A498 renal
[29] = test system: SW-620 colon
[30] = test system: LXFL 529 NSCLC
[31] = test system: UACC-257 melanoma
[32] = test system: 786-0 renal
[33] = test system: ACHN renal
[34] = test system: NCI-H522 lung
[35] = test system: HOP-18 NSCLC
[36] = test system: SF-268 CNS
[37] = test system: K-562 leukemia
[38] = test system: KM12 colon
[39] = test system: MALME-3M melanoma
[40] = test system: UACC-62 melanoma
[41] = test system: MOLT-4 leukemia
[42] = test system: SK-MEL-2 melanoma
[43] = test system: SK-MEL-28 melanoma
[44] = test system: SNB-78 CNS
[45] = test system: A549 NSCLC
[46] = test system: UO-31 renal
[47] = test system: KM20L2 colon
[48] = test system: DMS 114 small cell lung
[49] = test system: RXF 393 renal
[50] = test system: TK-10 renal
[51] = test system: CCRF-CEM leukemia
[52] = test system: NCI-H23 lung
[53] = test system: SF-295 CNS
[54] = test system: HOP-92 NSCLC
[55] = test system: LOX IMVI melanoma
[56] = test system: SR leukemia
[57] = test system: NCI-H226 lung
[58] = test system: OVCAR-5 ovarian

## O/N=C1/C(=C/c2ccc(Cl)c(Cl)c2)CCCC1C(NO)c1ccc(Cl)c(Cl)c1 (stereo unspecified)
[1]
  TGI: 34.6 µM
[2]
  TGI: 48.2 µM
[3]
  TGI: 35.2 µM
[4]
  TGI: 30.3 µM
[5]
  TGI: 34 µM
[6]
  TGI: 32.1 µM
[7]
  TGI: 33.9 µM
[8]
  TGI: 42.9 µM
[9]
  TGI: 33.2 µM
[10]
  TGI: 37 µM
[11]
  TGI: 36 µM
[12]
  TGI: 53.6 µM
[13]
  TGI: 31.1 µM
[14]
  TGI: 35.7 µM
[15]
  TGI: 34.2 µM
[16]
  TGI: 39 µM
[17]
  TGI: 38.5 µM
[18]
  TGI: 36.8 µM
[19]
  TGI: 33.1 µM
[20]
  TGI: 36.7 µM
[21]
  TGI: 35.3 µM
[22]
  TGI: 33.8 µM
[23]
  TGI: 26.7 µM
[24]
  TGI: 40 µM
[25]
  TGI: 39.1 µM
[26]
  TGI: 37.2 µM
[27]
  TGI: 27.8 µM
[28]
  TGI: 27.4 µM
[29]
  TGI: 36 µM
[30]
  TGI: 29.5 µM
[31]
  TGI: 34.1 µM
[32]
  TGI: 42.4 µM
[33]
  TGI: 33 µM
[34]
  TGI: 25 µM
[35]
  TGI: 30.5 µM
[36]
  TGI: 45.7 µM
[37]
  TGI: 63.6 µM
[38]
  TGI: 31.9 µM
[39]
  TGI: 44.4 µM
[40]
  TGI: 35 µM
[41]
  TGI: 33.8 µM
[42]
  TGI: 38.5 µM
[43]
  TGI: 34.5 µM
[44]
  TGI: 37.7 µM
[45]
  TGI: 41.3 µM
[46]
  TGI: 35.7 µM
[47]
  TGI: 35.3 µM
[48]
  TGI: 37.3 µM
[49]
  TGI: 43.3 µM
[50]
  TGI: 36.3 µM
[51]
  TGI: 46.1 µM
[52]
  TGI: 35.6 µM

## CCOc1ccc(N=Nc2ccc3oc(=O)c(/C(C)=N/NC(=O)CC(=O)Nc4cccc(OC)c4)cc3c2)cc1
[1]
  TGI: 77.3 µM
[2]
  TGI: 31.7 µM
[3]
  TGI: 30.8 µM
[4]
  TGI: 33.7 µM
[5]
  TGI: > 45.4 µM
[7]
  TGI: 42 µM
[8]
  TGI: 55.5 µM
[9]
  TGI: 51 µM
[10]
  TGI: 45.5 µM
[11]
  TGI: > 71.2 µM
[12]
  TGI: 53.7 µM
[14]
  TGI: 78.3 µM
[15]
  TGI: 17.1 µM
[16]
  TGI: 16.1 µM
[17]
  TGI: 65.4 µM
[18]
  TGI: 30.2 µM
[19]
  TGI: > 79 µM
[53]
  TGI: 53.8 µM
[20]
  TGI: > 61.4 µM
[21]
  TGI: 58.4 µM
[22]
  TGI: > 88.1 µM
[23]
  TGI: 52.6 µM
[54]
  TGI: 47.4 µM
[55]
  TGI: 60.5 µM
[24]
  TGI: 46.3 µM
[25]
  TGI: 82.3 µM
[26]
  TGI: > 86.3 µM
[27]
  TGI: 37 µM
[29]
  TGI: 85.1 µM
[30]
  TGI: 33.5 µM
[31]
  TGI: 22 µM
[32]
  TGI: 22.3 µM
[33]
  TGI: 51.6 µM
[34]
  TGI: 72.4 µM
[35]
  TGI: 74.4 µM
[56]
  TGI: 10.1 µM
[36]
  TGI: 52.5 µM
[37]
  TGI: 86.5 µM
[38]
  TGI: > 56.9 µM
[39]
  TGI: 37.5 µM
[40]
  TGI: 39.7 µM
[41]
  TGI: > 56 µM
[42]
  TGI: 45.7 µM
[57]
  TGI: > 73 µM
[43]
  TGI: 92 µM
[44]
  TGI: > 95.9 µM
[58]
  TGI: > 70.3 µM
[45]
  TGI: > 74.6 µM
[46]
  TGI: 29.5 µM
[47]
  TGI: > 31.6 µM
[48]
  TGI: 44.5 µM
[49]
  TGI: 38.1 µM
[50]
  TGI: > 100 µM
[51]
  TGI: 21.6 µM
[52]
  TGI: 33.4 µM

## COc1ccc(CC#C/C=C/C(=O)NCC(C)C)cc1
[1]
  TGI: > 100 µM
[3]
  TGI: > 100 µM
[4]
  TGI: > 100 µM
[6]
  TGI: > 100 µM
[7]
  TGI: > 100 µM
[8]
  TGI: > 100 µM
[9]
  TGI: > 100 µM
[10]
  TGI: > 100 µM
[11]
  TGI: > 100 µM
[12]
  TGI: > 100 µM
[13]
  TGI: > 100 µM
[14]
  TGI: > 100 µM
[15]
  TGI: > 100 µM
[16]
  TGI: > 100 µM
[17]
  TGI: > 100 µM
[18]
  TGI: > 100 µM
[19]
  TGI: > 100 µM
[53]
  TGI: > 100 µM
[20]
  TGI: > 100 µM
[21]
  TGI: > 100 µM
[22]
  TGI: > 100 µM
[23]
  TGI: > 100 µM
[54]
  TGI: > 100 µM
[55]
  TGI: > 100 µM
[24]
  TGI: > 100 µM
[25]
  TGI: > 100 µM
[26]
  TGI: > 100 µM
[27]
  TGI: > 100 µM
[29]
  TGI: > 100 µM
[30]
  TGI: > 100 µM
[31]
  TGI: > 100 µM
[32]
  TGI: > 100 µM
[33]
  TGI: > 100 µM
[34]
  TGI: > 100 µM
[35]
  TGI: > 100 µM
[56]
  TGI: > 100 µM
[36]
  TGI: > 100 µM
[37]
  TGI: > 100 µM
[38]
  TGI: > 100 µM
[39]
  TGI: > 100 µM
[40]
  TGI: > 100 µM
[41]
  TGI: > 100 µM
[42]
  TGI: > 100 µM
[57]
  TGI: > 100 µM
[43]
  TGI: > 100 µM
[44]
  TGI: > 100 µM
[58]
  TGI: > 100 µM
[45]
  TGI: > 100 µM
[46]
  TGI: > 100 µM
[47]
  TGI: > 100 µM
[48]
  TGI: > 100 µM
[49]
  TGI: > 100 µM
[50]
  TGI: > 100 µM
[51]
  TGI: > 100 µM
[52]
  TGI: > 100 µM

## O=[N+]([O-])c1ccc(C2=Nn3c(nnc3-c3ccccc3)SC2)o1
[1]
  TGI: 32 µM
[2]
  TGI: > 100 µM
[3]
  TGI: 32.4 µM
[4]
  TGI: 35.6 µM
[5]
  TGI: 35 µM
[6]
  TGI: 52.8 µM
[7]
  TGI: 38.9 µM
[8]
  TGI: > 100 µM
[9]
  TGI: 39 µM
[10]
  TGI: 30.2 µM
[11]
  TGI: 48.7 µM
[12]
  TGI: > 100 µM
[13]
  TGI: 38.9 µM
[14]
  TGI: 49.9 µM
[15]
  TGI: 33.7 µM
[16]
  TGI: 37.8 µM
[17]
  TGI: 47.6 µM
[18]
  TGI: 35.7 µM
[19]
  TGI: > 100 µM
[53]
  TGI: 31.8 µM
[20]
  TGI: 45.9 µM
[21]
  TGI: 32.6 µM
[22]
  TGI: 41.1 µM
[23]
  TGI: 41.5 µM
[54]
  TGI: 34.1 µM
[24]
  TGI: 41.6 µM
[25]
  TGI: > 100 µM
[26]
  TGI: 38.2 µM
[27]
  TGI: 31.8 µM
[28]
  TGI: > 100 µM
[29]
  TGI: 40.5 µM
[30]
  TGI: 29.9 µM
[31]
  TGI: 36.5 µM
[32]
  TGI: 40.7 µM
[33]
  TGI: 33.8 µM
[35]
  TGI: 34.8 µM
[36]
  TGI: 42.8 µM
[37]
  TGI: > 100 µM
[38]
  TGI: 42.4 µM
[39]
  TGI: 47.5 µM
[40]
  TGI: 36.3 µM
[41]
  TGI: 70.8 µM
[42]
  TGI: 49 µM
[57]
  TGI: > 100 µM
[43]
  TGI: > 100 µM
[44]
  TGI: 44.7 µM
[58]
  TGI: 65.8 µM
[45]
  TGI: > 100 µM
[47]
  TGI: 53.5 µM
[48]
  TGI: 38.8 µM
[49]
  TGI: 53.5 µM
[50]
  TGI: 34.5 µM
[51]
  TGI: 20.2 µM
[52]
  TGI: 42.8 µM
